Series [1] addresses Sodium-dependent dopamine transporter (Rattus norvegicus, UniProt P23977). The experiment in a line: Binding affinity to rat DAT.
Series [2] deals with T1, Sodium-dependent dopamine transporter (Homo sapiens, UniProt Q01959). Nature of the series: Binding affinity to DAT.
The nature of series [3]: Drug distribution in Papio anubis putamen assessed as drug influx constant at 137.4 +/- 66.8 MBq. It counts as ADME, tissue-based.
The nature of series [4]: Drug distribution in Papio anubis putamen assessed as drug efflux constant at 137.4 +/- 66.8 MBq. The format is ADME, tissue-based.
Series [5] is described as follows: Drug uptake in Papio anubis putamen at 137.4 +/- 66.8 MBq measured 60 mins post dose co-treated with 1.5 mg/kg DAT ligand GBR12909 by dynamic PET scanning method. The format is ADME, organism-based. Further details: dose 1.5 mg/kg; call rule not given here. The following applies: in vivo, 1 h.
Series [6] in a line: Drug distribution in Papio anubis midbrain assessed as drug efflux constant at 137.4 +/- 66.8 MBq. The format is ADME, tissue-based.
Series [7] in a line: Drug uptake in Papio anubis ventral striatum at 137.4 +/- 66.8 MBq measured 90 mins post dose by dynamic PET scanning method. It counts as ADME, tissue-based. The following applies: 1.5 h.
Series [8] is described as follows: Stability in Papio anubis plasma assessed as intact compound level at 137.4 +/- 66.8 MBq measured 30 mins post dose. It counts as ADME, cell-free. The following applies: read-out: Stability.
Series [9] is described as follows: Drug uptake in Papio anubis ventral striatum at 137.4 +/- 66.8 MBq measured 7.5 +/- 0.5 mins post dose by dynamic PET scanning method. The format is ADME, tissue-based.
Series [10] in a line: In vivo binding affinity to DAT in Papio anubis midbrain assessed as binding potential at 137.4 +/- 66.8 MBq. It counts as ADME, organism-based.
Series [11] is described as follows: Drug distribution in Papio anubis midbrain assessed as drug influx constant at 137.4 +/- 66.8 MBq. The format is ADME, tissue-based.
Series [12] can be described thus: Drug uptake in Papio anubis mid brain at 137.4 +/- 66.8 MBq measured 3.5 mins post dose by dynamic PET scanning method. It counts as ADME, tissue-based, Midbrain.
In another series the test system is Brain. The experiment in a line: Drug uptake in Papio anubis whole brain assessed per 100 ml at 137.4 +/- 66.8 MBq measured 3 +/- 0.5 mins post dose by dynamic PET scanning method. The format is ADME, tissue-based.
The nature of series [13]: Drug uptake in Papio anubis caudate nucleus assessed per 100 ml at 137.4 +/- 66.8 MBq measured 25 mins post dose by dynamic PET scanning method. The format is ADME, tissue-based.
A short description of series [14]: Drug uptake in Papio anubis caudate nucleus at 137.4 +/- 66.8 MBq measured 60 mins post dose co-treated with DAT ligand [18F]PR04.MZ by dynamic PET scanning method. The format is ADME, tissue-based. The following applies: 1 h.
Series [15] is described as follows: Drug uptake in Papio anubis midbrain at 137.4 +/- 66.8 MBq measured 60 mins post dose co-treated with DAT ligand [18F]PR04.MZ by dynamic PET scanning method. The format is ADME, tissue-based. The following applies: 1 h.
The nature of series [16]: Stability in Sprague-Dawley rat brain assessed as intact compound level measured 60 mins post dose by HPLC. It counts as ADME, tissue-based. Particulars: read-out: Stability.
The nature of series [17]: Drug uptake in Papio anubis mid brain at 137.4 +/- 66.8 MBq measured 45 mins post dose by dynamic PET scanning method. The following applies: 0.75 h. The format is ADME, tissue-based, Midbrain.
Series [18] in a line: Drug distribution in Papio anubis ventral striatum assessed as drug efflux constant at 137.4 +/- 66.8 MBq. The format is ADME, tissue-based.
Series [19] is described as follows: Drug uptake in Papio anubis mid brain at 137.4 +/- 66.8 MBq measured 90 mins post dose by dynamic PET scanning method. It counts as ADME, tissue-based, Midbrain. Particulars: 1.5 h.
Series [20] is described as follows: Drug distribution in Papio anubis cerebellum assessed as drug influx constant at 137.4 +/- 66.8 MBq. It counts as ADME, tissue-based.
Series [21] in a line: Drug uptake in Papio anubis putamen at 137.4 +/- 66.8 MBq measured 60 mins post dose co-treated with DAT ligand [18F]PR04.MZ by dynamic PET scanning method. It counts as ADME, tissue-based. The following applies: 1 h.
The nature of series [22]: In vivo binding affinity to DAT in Papio anubis cerebellum assessed as binding potential at 137.4 +/- 66.8 MBq. The format is ADME, organism-based.
A short description of series [23]: Unbound fraction in Papio anubis plasma at 137.4 +/- 66.8 MBq. It counts as ADME, cell-free.
Series [24] can be described thus: Drug uptake in Papio anubis putamen assessed per 100 ml at 137.4 +/- 66.8 MBq measured 25 +/- 2.5 mins post dose by dynamic PET scanning method. The format is ADME, tissue-based.
Series [25] can be described thus: Drug distribution in Papio anubis ventral striatum assessed as drug influx constant at 137.4 +/- 66.8 MBq. It counts as ADME, tissue-based.
Series [26] can be described thus: Drug distribution in Papio anubis caudate nucleus assessed as drug efflux constant at 137.4 +/- 66.8 MBq. It counts as ADME, tissue-based.
A short description of series [27]: Drug distribution in Papio anubis caudate nucleus assessed as drug influx constant at 137.4 +/- 66.8 MBq. The format is ADME, tissue-based.
Series [28] in a line: Drug uptake in Papio anubis striatum assessed per 100 ml at 137.4 +/- 66.8 MBq measured 25 +/- 2.5 mins post dose by dynamic PET scanning method. The format is ADME, tissue-based.
The nature of series [29]: Drug uptake in Papio anubis ventral striatum at 137.4 +/- 66.8 MBq measured 45 mins post dose by dynamic PET scanning method. The format is ADME, tissue-based. Particulars: 0.75 h.
Series [30] is described as follows: In vivo binding affinity to DAT in Papio anubis putamen assessed as binding potential at 137.4 +/- 66.8 MBq. It counts as ADME, organism-based.
Series [31] in a line: Drug distribution in Papio anubis cerebellum assessed as drug efflux constant at 137.4 +/- 66.8 MBq. The format is ADME, tissue-based.
A short description of series [32]: In vivo binding affinity to DAT in Papio anubis ventral striatum assessed as binding potential at 137.4 +/- 66.8 MBq. The format is ADME, organism-based.
Another series relates to Nucleic Acid. Nature of the series: Ratio of drug level in midbrain to cerebellum in Papio anubis midbrain at 137.4 +/- 66.8 MBq measured 90 mins post dose. The following applies: 1.5 h. It counts as ADME.
The nature of series [33]: Drug uptake in Papio anubis striatum assessed per 100 ml at 137.4 +/- 66.8 MBq measured 90 mins post dose by dynamic PET scanning method. The format is ADME, tissue-based. The following applies: 1.5 h.
Series [34] in a line: Drug uptake in Papio anubis striatum assessed per 100 ml at 137.4 +/- 66.8 MBq measured 180 mins post dose by dynamic PET scanning method. It counts as ADME, tissue-based. Particulars: 3 h.
Series [35] can be described thus: In vivo binding affinity to DAT in Papio anubis caudate nucleus assessed as binding potential at 137.4 +/- 66.8 MBq. The format is ADME, organism-based.
Series [36] in a line: Drug uptake in Papio anubis caudate nucleus at 137.4 +/- 66.8 MBq measured 60 mins post dose co-treated with 1.5 mg/kg DAT ligand GBR12909 by dynamic PET scanning method. It counts as ADME, organism-based. Particulars: in vivo, 1 h. Details: dose 1.5 mg/kg.
Series [37] in a line: Drug uptake in Papio anubis midbrain at 137.4 +/- 66.8 MBq measured 60 mins post dose co-treated with 1.5 mg/kg DAT ligand GBR12909 by dynamic PET scanning method. The following applies: in vivo, 1 h. It counts as ADME, organism-based. Further details: dose 1.5 mg/kg.
The nature of series [38]: Lipophilicity, log D of the compound at pH 7.4 by HPLC. The format is physicochemical. The following applies: buffer.
Series [39] has as its target T2, Sodium-dependent noradrenaline transporter (Homo sapiens, UniProt P23975). The experiment in a line: Displacement of [3H]NE from human NET expressed in HEK293 cells. It counts as cell-based.
Series [40] concerns the target T2, Sodium-dependent noradrenaline transporter. The experiment in a line: Displacement of [3H]nisoxetine from human NET expressed in HEK293 cells. It counts as cell-based.
Series [41] addresses T1, Sodium-dependent dopamine transporter. Nature of the series: Displacement of [3H]DA from human DAT expressed in HEK293 cells. The format is cell-based.
For series [42], the target named is T3, Sodium-dependent serotonin transporter (Homo sapiens, UniProt P31645). Nature of the series: Displacement of [3H]5-HT from human SERT expressed in HEK293 cells. It counts as cell-based.
The target in series [43] is T1, Sodium-dependent dopamine transporter. The experiment in a line: Displacement of [3H]WIN35,428 from human DAT expressed in HEK293 cells. It counts as cell-based.
The target in series [44] is T3, Sodium-dependent serotonin transporter. Nature of the series: Displacement of [3H]citalopram from human SERT expressed in HEK293 cells. It counts as cell-based.

Each structure is given as a SMILES string.

T1 sequence (Q01959 whole entry): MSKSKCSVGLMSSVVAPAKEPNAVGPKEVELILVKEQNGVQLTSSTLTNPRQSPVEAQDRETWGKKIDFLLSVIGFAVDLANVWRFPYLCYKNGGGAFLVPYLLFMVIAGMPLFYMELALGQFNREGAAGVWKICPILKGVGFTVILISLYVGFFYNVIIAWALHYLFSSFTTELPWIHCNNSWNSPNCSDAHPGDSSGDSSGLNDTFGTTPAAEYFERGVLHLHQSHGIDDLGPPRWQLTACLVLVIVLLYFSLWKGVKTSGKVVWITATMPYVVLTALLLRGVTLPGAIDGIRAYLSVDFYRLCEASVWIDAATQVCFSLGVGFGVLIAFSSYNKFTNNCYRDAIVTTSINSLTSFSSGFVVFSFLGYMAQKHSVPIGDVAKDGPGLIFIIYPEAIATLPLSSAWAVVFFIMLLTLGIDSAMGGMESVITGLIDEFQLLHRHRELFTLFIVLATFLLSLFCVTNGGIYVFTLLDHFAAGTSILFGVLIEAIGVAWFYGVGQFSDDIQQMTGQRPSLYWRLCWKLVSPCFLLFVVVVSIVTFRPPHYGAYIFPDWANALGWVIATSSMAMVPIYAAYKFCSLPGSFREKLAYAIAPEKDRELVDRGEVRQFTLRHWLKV
Chain of Sodium-dependent dopamine transporter (Rattus norvegicus, UniProt P23977) (P23977 whole entry): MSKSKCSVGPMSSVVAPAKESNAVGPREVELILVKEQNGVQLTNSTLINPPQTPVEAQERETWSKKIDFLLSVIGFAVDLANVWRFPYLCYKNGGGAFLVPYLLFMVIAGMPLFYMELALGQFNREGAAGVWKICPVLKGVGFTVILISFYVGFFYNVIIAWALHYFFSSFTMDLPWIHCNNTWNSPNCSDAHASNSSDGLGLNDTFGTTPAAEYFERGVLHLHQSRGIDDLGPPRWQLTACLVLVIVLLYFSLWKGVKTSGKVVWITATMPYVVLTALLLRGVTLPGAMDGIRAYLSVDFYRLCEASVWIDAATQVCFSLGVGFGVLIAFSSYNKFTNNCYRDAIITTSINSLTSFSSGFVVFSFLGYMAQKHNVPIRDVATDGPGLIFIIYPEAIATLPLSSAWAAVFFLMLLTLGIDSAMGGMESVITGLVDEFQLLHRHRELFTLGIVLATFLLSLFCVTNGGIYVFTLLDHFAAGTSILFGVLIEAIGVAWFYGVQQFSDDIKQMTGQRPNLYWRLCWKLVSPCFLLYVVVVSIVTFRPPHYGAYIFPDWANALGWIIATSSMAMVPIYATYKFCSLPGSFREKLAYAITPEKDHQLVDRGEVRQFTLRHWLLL
T2 sequence (P23975 whole entry): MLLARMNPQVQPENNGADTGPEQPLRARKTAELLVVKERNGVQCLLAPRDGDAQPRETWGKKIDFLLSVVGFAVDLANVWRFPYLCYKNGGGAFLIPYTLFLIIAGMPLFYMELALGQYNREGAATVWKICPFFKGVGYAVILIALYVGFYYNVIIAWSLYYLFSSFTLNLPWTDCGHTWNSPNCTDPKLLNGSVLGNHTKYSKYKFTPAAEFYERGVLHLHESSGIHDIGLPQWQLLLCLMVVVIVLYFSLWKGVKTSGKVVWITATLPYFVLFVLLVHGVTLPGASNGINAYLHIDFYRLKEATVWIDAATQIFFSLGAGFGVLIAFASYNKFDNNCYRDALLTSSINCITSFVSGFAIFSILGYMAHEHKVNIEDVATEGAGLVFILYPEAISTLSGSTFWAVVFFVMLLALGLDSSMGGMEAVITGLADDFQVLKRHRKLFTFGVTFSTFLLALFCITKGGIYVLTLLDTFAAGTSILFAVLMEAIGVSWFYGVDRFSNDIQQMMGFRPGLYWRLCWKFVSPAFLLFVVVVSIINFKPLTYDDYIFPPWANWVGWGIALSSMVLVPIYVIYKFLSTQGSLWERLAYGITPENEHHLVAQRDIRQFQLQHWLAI
T3 sequence (P31645 whole entry): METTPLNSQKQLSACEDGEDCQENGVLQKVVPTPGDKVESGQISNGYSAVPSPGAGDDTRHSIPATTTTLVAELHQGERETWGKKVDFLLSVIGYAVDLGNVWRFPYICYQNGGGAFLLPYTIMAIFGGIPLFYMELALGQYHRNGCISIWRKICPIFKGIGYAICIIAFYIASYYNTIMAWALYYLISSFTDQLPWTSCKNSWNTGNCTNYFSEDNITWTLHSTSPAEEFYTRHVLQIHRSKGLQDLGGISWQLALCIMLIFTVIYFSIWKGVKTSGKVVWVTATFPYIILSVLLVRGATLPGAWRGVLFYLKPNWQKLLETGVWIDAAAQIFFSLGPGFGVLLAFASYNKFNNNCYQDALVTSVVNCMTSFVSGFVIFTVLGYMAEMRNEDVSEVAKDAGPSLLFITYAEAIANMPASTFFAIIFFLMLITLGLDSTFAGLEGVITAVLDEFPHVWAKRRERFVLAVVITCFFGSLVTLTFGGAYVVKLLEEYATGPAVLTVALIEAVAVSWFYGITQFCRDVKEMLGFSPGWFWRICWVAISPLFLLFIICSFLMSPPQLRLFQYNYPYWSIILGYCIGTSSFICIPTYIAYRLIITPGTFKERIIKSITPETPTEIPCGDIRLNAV

With `COC(=O)[C@H]1[C@@H](c2ccc(C)cc2)C[C@@H]2CC[C@H]1N2C/C=C/CF`, in [1], binding was put at a Kd of 9 nM.
In series [2], `COC(=O)[C@H]1[C@@H](c2ccc(Cl)cc2)C[C@@H]2CC[C@H]1N2CCF` gave an inhibitory constant (Ki) of 8 nM.
Compound `COC(=O)[C@H]1[C@@H](c2ccc(C)cc2)C[C@@H]2CC[C@H]1N2C/C=C/I` had a Kd in series [1] of 4 nM.
Regarding `Cc1ccc([C@H]2C[C@@H]3CC[C@H]([C@H]2C(=O)O[11CH3])N3CC#CCF)cc1`, the Activity in series [3] stood at 0.015 ml/cm3/min; in series [4], 0.004 min⁻¹; in [6] it was 0.016 min⁻¹; in series [10] it was 2.7 ml/cm3; in series [11], 0.064 ml/cm3/min; in series [18] it was 0.0076 min⁻¹. In addition, the Activity was 0.144 ml/cm3/min in [20]; 0 ml/cm3 in [22]; 0.03 ml/cm3/min in series [25]; 0.004 min⁻¹ in series [26]; 0.017 ml/cm3/min in series [27]; 36.8 ml/cm3 in [30]. The Activity was 0.036 min⁻¹ in [31], 8.2 ml/cm3 in series [32] and 29.3 ml/cm3 in [35]. In addition, the Drug uptake entry in series [5] is on record as “Not Active”; in [7] it was 2.55 %ID/ml; in series [9], 3.8 %ID/ml; in series [12] it was 2.8 %ID/ml; in the series on Brain, 26.1 %ID; in series [13], 6.7 %ID. Further, the Drug uptake entry in [14] was “Not Active”; in series [15] it was “Not Active”; in series [17] it was 1.3 %ID/ml; in series [19], 0.8 %ID/ml; in [21], “Not Active”; in [24], 7.6 %ID. Besides, the Drug uptake in series [28] is 7.6 %ID; in [29], 3.1 %ID/ml; in [33], 6.7 %ID; in series [34], 4.8 %ID; in series [36], “Not Active”; in series [37], “Not Active”. In addition, the remaining at 0.5 h in series [8] worked out at 39%. Moreover, the remaining at 1 h in [16] was over 95%. In series [23], this compound came in with a Fu of 4.4 %ID. In the series with Nucleic Acid, the Ratio is listed as 4.6.
For `COC(=O)[C@H]1[C@@H](c2ccc(C)cc2)C[C@@H]2CC[C@H]1N2CC#CCF`, the logD in [38] worked out at 2.7. Besides, the 50% inhibitory concentration (IC50) was found to be 31 nM in series [39]; 22.5 nM in series [40]; 3.26 nM in series [41]; 240 nM in [42]; 1.93 nM in series [43]; 108 nM in series [44].

The values above are taken from ChEMBL document CHEMBL2203057, “Characterisation of [¹¹C]PR04.MZ in Papio anubis baboon: a selective high-affinity radioligand for quantitative imaging of the dopamine transporter” (Bioorg Med Chem Lett, 2012).
